From patent publication US12558393B2, “Compositions and methods of BDNF activation” (VDF Futureceuticals, Inc., priority 2013, dated 2026)

Tested on: BDNF plasma levels
Experiment: Plasma BDNF by ELISA in healthy fasted subjects after a single oral dose
Assay type: in vivo, human
Details: 50 mg single dose, five healthy subjects (FIG. 2)

O=C(/C=C/c1ccc(O)c(O)c1)O[C@@H]1C[C@](O)(C(=O)O)C[C@@H](O)[C@H]1O [chlorogenic acid]
blood level of BDNF, increase: did not increase blood level of BDNF in a statistically significant manner
